Results as given in US20230233555A1 (AbbVie Inc., priority 2022, published 2023).
“Also recorded” adds a separate entry of the source.

Key:
[1] = molecular target: CYP3A4 (Homo sapiens, UniProt P08684); experiment: In vitro metabolism / substrate assessment, CYP3A4; type: in vitro ADME
[2] = tested on: CYP3A4, CYP2B6, CYP1A2; experiment: In vitro CYP induction; type: in vitro ADME
[3] = tested on: IL-6 (JAK1/JAK2)-induced STAT3 and IL-7 (JAK1/JAK3)-induced STAT5 phosphorylation; experiment: IL-6 induced STAT3 and IL-7 induced STAT5 phosphorylation in whole blood of healthy volunteers; type: in vivo, human; conditions: immediate release formulation
Procedure: The maximal inhibition was observed 1 hour after dosing which returned to near baseline by the end of dosing interval.

[4] = Plasma protein binding and blood to plasma partitioning; type: in vitro ADME; conditions: human, read-out: Bound to plasma proteins (converted)
[5] = Renal impairment pharmacokinetic study (Study M13-551); type: in vivo, human
Procedure: (§1) Renal clearance indicates some involvement of renal transporters in the excretion. Renal secretion is however not estimated to contribute to more than 25% of the elimination. […] As used herein, reference to “severe renal impairment” means a creatinine clearance of less than 30 mL/min.
This may increase the risk of adverse reactions; therefore, dosage modification in patients with severe renal impairment is recommended.

[6] = Population pharmacokinetic analyses; type: in vivo, human
Procedure: as §1
The effect of different intrinsic factors has been evaluated in dedicated PK studies in renal and hepatic impairment and in Asian subjects, and by population pharmacokinetic analysis from the phase 2/3 studies. […] There are limited data in patients aged 75 years and older and there is no pharmacokinetic data in children and adolescents.

[7] = tested on: pregnant female rats; experiment: Oral pre- and post-natal development study in rats; type: in vivo; conditions: GD 6 through lactation day 20, AUC basis, 10 mg/kg/day
[8] = Milk excretion in lactating rats; type: in vivo, rat; conditions: female, Sprague-Dawley, rat, milk (relative to maternal plasma); single oral 10 mg/kg radiolabeled, post-partum days 7-8; read-out: Drug exposure in milk vs maternal plasma (AUC0-t)
Excerpt: (§2) Drug exposure was approximately 30-fold greater in milk than in maternal plasma based on AUC0-t values. Approximately 97% of drug-related material in milk was parent drug.

[9] = tested on: lactating female Sprague-Dawley rats; experiment: Milk excretion in lactating rats; type: in vivo, rat; conditions: single oral 10 mg/kg radiolabeled
Excerpt: as §2

[10] = tested on: Tg.rasH2 mice; experiment: Carcinogenicity study in Tg.rasH2 mice; type: in vivo, mouse; conditions: 26 weeks, oral up to 20 mg/kg/day
[11] = tested on: rat bone marrow; experiment: In vivo rat bone marrow micronucleus assay
[12] = Model-estimated and predicted upadacitinib Cmax and AUCss in UC patients with severe renal impairment; design: species or system human; conditions: for Predicted Cmax in UC Patients with Severe Renal Impairment based on results from M13-551, Median: model-estimated value multiplied by 1.14; for Predicted AUCss in UC Patients with Severe Renal Impairment based on results from M13-551, Median: model-estimated value multiplied by 1.44
Procedure: Therefore, it is recommended that the induction dose is reduced in UC patients with severe renal impairment to 30 mg QD.
Therefore, it is recommended that the maintenance dose is reduced in UC patients with severe renal impairment to 15 mg QD.

[13] = tested on: patients with rheumatoid arthritis; conditions: in vivo
Excerpt: Exposure adjusted incidence rates were adjusted by trial for all the adverse events reported in this section.
Patients 18 years of age and older were eligible to participate. The presence of at least 6 tender and 6 swollen joints and evidence of systemic inflammation based on elevation of hsCRP was required at baseline.

[14] = clinical; conditions: human, in vivo

Chain of CYP3A4 (P08684 whole entry): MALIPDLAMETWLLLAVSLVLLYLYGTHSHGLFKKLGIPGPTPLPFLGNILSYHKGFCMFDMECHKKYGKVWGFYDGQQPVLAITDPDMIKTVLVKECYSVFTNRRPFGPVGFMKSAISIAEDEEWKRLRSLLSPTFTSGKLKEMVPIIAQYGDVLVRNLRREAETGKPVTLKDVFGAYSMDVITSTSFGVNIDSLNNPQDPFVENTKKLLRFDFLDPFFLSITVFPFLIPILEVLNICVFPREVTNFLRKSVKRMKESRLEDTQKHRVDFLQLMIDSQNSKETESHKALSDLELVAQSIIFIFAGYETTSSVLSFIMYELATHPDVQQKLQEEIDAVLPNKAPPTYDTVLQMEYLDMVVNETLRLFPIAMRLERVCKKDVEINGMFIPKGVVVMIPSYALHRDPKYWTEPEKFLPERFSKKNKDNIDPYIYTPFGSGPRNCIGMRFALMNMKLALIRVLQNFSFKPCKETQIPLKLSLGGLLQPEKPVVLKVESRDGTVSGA

CC[C@@H]1CN(C(=O)NCC(F)(F)F)C[C@@H]1c1cnc2cnc3[nH]ccc3n12 [upadacitinib, (3S,4R)-3-Ethyl-4-(3H-imidazo[1,2-a]pyrrolo[2,3-e]pyrazin-8-yl)-N-(2,2,2-trifluoroethyl)pyrrolidine-1-carboxamide hydrate (2:1)]
Substrate of / metabolised by CYP3A4 [1]: substrate; also recorded: mediated by mainly CYP3A4; also recorded: metabolized in vitro by CYP3A4
Induction of CYP1A2 [2]: borderline
Induction of CYP3A4 and CYP2B6 [2]: inducer
Inhibition of IL-6-induced STAT3 and IL-7-induced STAT5 phosphorylation in whole blood [3]: dose- and concentration-dependent inhibition
Time of maximal inhibition after dosing [3]: 1 h
fraction unbound [4]: 0.48
Cmax, impaired vs normal renal function ([5]; in vivo): similar
Contribution of the renal route to elimination ([5]; in vivo): approximately 25%
AUCinf higher vs normal renal function ([5]; mild renal impairment): 18%
AUCinf higher vs normal renal function ([5]; moderate renal impairment): 33%
AUCinf higher vs normal renal function ([5]; severe renal impairment): 44%
Cmax higher vs normal renal function ([5]; severe renal impairment, Study M13-551): 14%
Plasma exposure, adolescent / pediatric (12 years and older, at least 40 kg) vs adult subjects ([6]; atopic dermatitis studies): similar; also recorded: No meaningful difference
Age as covariate on CL/F and Vc/F ([6]; continuous and discrete (adolescents ≥40 kg vs adults)): not found to be statistically significant
Effect of pH modifying medications (antacids, proton pump inhibitors) on plasma exposures ([6]; in vitro assessments and population PK analyses): not expected to affect
Effect of body weight, gender, race, ethnicity, age on upadacitinib pharmacokinetics / exposure ([6]; in vivo): no relevant effects; also recorded: did not have a clinically meaningful effect
Pharmacokinetics in geriatric patients (>65 years) vs younger adults ([6]; in vivo): No clinically meaningful differences
Effect of CYP2D6 metabolic phenotype (extensive vs poor metabolizers) on upadacitinib CL/F, pharmacokinetics ([6]; population PK analysis): comparability; also recorded: no effect
Exposure multiple with no maternal or developmental toxicity [7]: approximately 1.6 times the MRHD of 30 mg
Kp [8]: ~30
Parent drug share of drug-related material in milk [9]: Approximately 97%
Tumorigenicity [10]: No evidence of tumorigenicity
Genotoxicity, bone marrow micronucleus [11]: tested negatively
Predicted Cmax in UC Patients with Severe Renal Impairment based on results from M13-551, Median ([12]; 7.5 mg treatment group): 0.023 µg/mL
Predicted AUCss in UC Patients with Severe Renal Impairment based on results from M13-551, Median ([12]; 7.5 mg treatment group): 0.232 µg·h/mL
Predicted Cmax in UC Patients with Severe Renal Impairment based on results from M13-551, Median ([12]; 15 mg treatment group): 0.0471 µg/mL
Predicted AUCss in UC Patients with Severe Renal Impairment based on results from M13-551, Median ([12]; 15 mg treatment group): 0.492 µg·h/mL
Predicted Cmax in UC Patients with Severe Renal Impairment based on results from M13-551, Median ([12]; 30 mg treatment group): 0.0895 µg/mL
Predicted AUCss in UC Patients with Severe Renal Impairment based on results from M13-551, Median ([12]; 30 mg treatment group): 0.94 µg·h/mL
Predicted Cmax in UC Patients with Severe Renal Impairment based on results from M13-551, Median ([12]; 45 mg treatment group): 0.138 µg/mL
Predicted AUCss in UC Patients with Severe Renal Impairment based on results from M13-551, Median ([12]; 45 mg treatment group): 1.431 µg·h/mL
Hemoglobin decreases below 8 g/dL in at least one measurement, patients [13]: none
Lipid changes with treatment [13]: dose-related increases in total cholesterol, triglycerides and LDL cholesterol
Time of peak elevations in LDL and HDL cholesterol [13]: ≤ 8 Week
half-life [14]: 8 to 14 h
Tmax ([14]; po): 2 to 4 h
